Laboratory results reported in PubChem BioAssay (NCI).
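GI50 = concentration required for 50% inhibition of growth. The concentration for full growth arrest is given as TGI.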

Experiments:
Assay in all cases: NCI tumour cell line growth inhibition, 384-well format; in the data active means GI50 below about 0.43 µM; inactive means the rest
PC-3 prostate = test system: PC-3 prostate
A498 renal = test system: A498 renal
NCI-H522 lung = test system: NCI-H522 lung
SF-295 CNS = test system: SF-295 CNS
OVCAR-8 ovarian = test system: OVCAR-8 ovarian
OVCAR-3 ovarian = test system: OVCAR-3 ovarian
HS 578T breast = test system: HS 578T breast
SK-OV-3 ovarian = test system: SK-OV-3 ovarian
HL-60(TB) leukemia = test system: HL-60(TB) leukemia
DU-145 prostate = test system: DU-145 prostate
SF-539 CNS = test system: SF-539 CNS
HOP-62 NSCLC = test system: HOP-62 NSCLC
LOX IMVI melanoma = test system: LOX IMVI melanoma

Cc1ccc(S(=O)(=O)Cc2nc(-c3ccc(C(=O)NCc4cccnc4)cc3)oc2C)cc1
28 nM: TGI (SF-295 CNS)
11.9 nM: TGI (HOP-62 NSCLC)
30.8 nM: TGI (DU-145 prostate)
active: GI50 (PC-3 prostate) < 10 nM | GI50 (A498 renal) 56.9 nM | GI50 (NCI-H522 lung) < 10 nM | GI50 (SF-295 CNS) 14.1 nM | GI50 (OVCAR-8 ovarian) < 10 nM | GI50 (OVCAR-3 ovarian) < 10 nM | GI50 (HS 578T breast) < 10 nM | GI50 (SK-OV-3 ovarian) < 10 nM | GI50 (HL-60(TB) leukemia) < 10 nM | GI50 (DU-145 prostate) 15.9 nM | GI50 (SF-539 CNS) < 10 nM | GI50 (HOP-62 NSCLC) < 10 nM | GI50 (LOX IMVI melanoma) 17.1 nM
691 nM: TGI (A498 renal)
< 10 nM: TGI (PC-3 prostate) | TGI (NCI-H522 lung) | TGI (OVCAR-8 ovarian) | TGI (OVCAR-3 ovarian) | TGI (HS 578T breast) | TGI (SK-OV-3 ovarian) | TGI (HL-60(TB) leukemia) | TGI (SF-539 CNS)
78.7 nM: TGI (LOX IMVI melanoma)
